This is an account of results in patent US11104647B2, “Multi-functional, stimuli-responsive materials, methods of preparation, methods of use, and uses thereof” (ADA Foundation, priority 2016, dated 2021).

Series [1] deals with E. coli. The experiment in a line: Minimum bactericidal concentration (MBC) determination by agar colony formation. It is filed as cell-based, Escherichia coli (E. coli, K12). Conditions: for MBC: Escherichia coli, 0.75 h, 45 min treatment. The procedure:
(§1) Azo-QPS-C16 was effective on both […] bacteria. The ability of bacteria to proliferate after exposure to Azo-QPS-C16 was characterized by adding growth medium and measuring the optical density (OD) at 600 nm every 15 minutes in pH 4.1, 5.8, and 7.9 buffer. […] However, exposure at pH 7.9 required a much higher concentration (40 μg/mL) to inhibit cell growth. […] The pH dependence of bactericidal activity of Azo-QPS-C16 in terms of minimum bactericidal concentration (MBC) was evaluated by inoculating cultures onto a Lysogeny Broth (LB) agar plate after treating the cells with a twofold dilution series of Azo-QPS-C16.
(§2) Bacterial strains and growth conditions. Streptococcus mutans (S. mutans, UA159) and Escherichia coli (E. coli, K12) were purchased from ATCC (American Type Culture Collection, Manassas, Va., USA). Todd Hewitt Broth (THB), and Lysogeny Broth (LB) powder and agar were purchased from BD (Becton, Dickinson and Company, Franklin Lakes, N.J., USA). Planktonic cultures were inoculated from 25% (by volume) glycerol frozen stocks stored at −80° C. E. coli cultures were grown in LB at 37° C. in a shaker-incubator. S. mutans cultures were grown in THB at 37° C. with 5% (by volume) CO2 overnight.
(§3) Bacterial growth curves. Overnight cultures of E. coli and S. mutans were diluted directly into buffers with different pH values (100 mmol/L, pH 4.1 sodium acetate buffer, pH 5.8 sodium phosphate buffer, and pH 7.9 sodium phosphate buffer) to an optical density at 600 nm (OD600) of approximately 0.001.
(§4) In a 96-well plate, 2 μL of Azo-QPS-C16 at various concentrations in dimethyl sulfoxide (DMSO) were added to 98 μL of bacteria suspension per well for a final concentration ranging from a 2-fold dilution series between 40 to 1.25 μg/mL of Azo-QPS-C16. After 45 minutes of treatment at room temperature, 10 μL from each well was transferred to a new 96-well plate already containing 100 μL growth media per well to measure the growth curves. E. coli were cultured at 37° C., and the OD600 of each well was measured by a Tecan Spark microplate reader (Männedorf, Switzerland) every 15 minutes for up to 19 hours, with 30 seconds shaking before each measurement. S. mutans were grown at 37° C. with 5% CO2, and the OD600 of each well was measured periodically using a Molecular Devices (Sunnyvale, Calif.) SpectraMax M5 microplate reader. All experiments were conducted in triplicate and repeated at least three times on different days.
(§5) Minimum bactericidal concentration (MBC) determination. MBC values were determined by agar colony formation. […] 5 μL of the suspended cells from each well were spotted onto an agar plate and incubated for 48 hours to allow colony formation, and the presence or absence of bacterial growth was determined by naked eye. […]

The subject of the next series is S. mutans. The series is described as above. It is filed as cell-based, Streptococcus mutans (S. mutans, UA159). As to conditions: for MBC: Streptococcus mutans, 0.75 h, 45 min treatment. The procedure:
as §1, §2, §3, §4, §5

Series [2] deals with E. coli. Put plainly: Bacterial growth curves (OD600) after exposure in buffer. It is filed as cell-based, Escherichia coli (E. coli, K12). The procedure:
as §1
Bacterial strains and growth conditions. […]
as §4, with “After 45 minutes of treatment at room temperature, 10 μL from each well was transferred to a new 96-well plate already containing 100 μL growth media per well to measure the growth curves.” left out, “All experiments were conducted in triplicate and repeated at least three times on different days.” left out

A further series in a line: pKa. Type of series: physicochemical.
Series [3] is described as follows: Dynamic light scattering (DLS) of pH-dependent assembly. It is filed as physicochemical. The procedure: Particles with an average hydrodynamic diameter of 51±19 nm formed in mildly basic conditions, occurring simultaneously with the appearance of the absorbance peak at 554 nm. […] One cycle corresponds to the addition of a base and an acid. In base and acid, respectively, the absorbance at 554 nm increased and then decreased, and the particles formed and disassembled.
Dynamic light scattering (DLS) was performed using a Nicomp 380 ZLS DLS system (Particle Sizing Systems Inc., Santa Barbara, Calif.). Samples were contained in disposable glass culture tubes. Prior to sample loading, the tubes were blown with nitrogen gas and filled with 0.4 mL of a dye sample. The tubes were sealed using parafilm and then centrifuged at 14,000 rpm (19,000 g) for 5 minutes to separate larger particles. Samples were placed in the instrument and allowed to attain thermal equilibrium. An autocorrelation function was acquired for 3 minutes at 173° scattering angle. A Laplace inversion-based Nicomp routine was used to find the distribution of decay rates. The decay rates are linked to the effective sphere hydrodynamic diameters by the appropriate equations. The size distribution is reported as a discrete set of diameter bins and corresponding intensity weighted fractions as probabilities assigned to diameter bins.

The nature of a further series: Solubility in water. It is filed as physicochemical.

The term MBC denotes the smallest concentration meeting the test's criterion for killing. A high value points to less potent killing. One may read the pKa as the pH at which an ionisable group is half protonated. Low values mean a stronger acid or weaker base, high ones a weaker acid or stronger base. For `C=C(C)C(=O)Oc1ccc(/N=N/c2cc[n+](CCCCCCCCCCCCCCCC)cc2)cc1.[Br-]` [Azo-QPS-C16, (E)-1-hexadecyl-4-((4-(methacryloyloxy)phenyl)diazenyl)-pyridinium bromide], the MBC against E. coli [1] (pH 4.1 buffer) is 2.5 µg/mL; in the series on E. coli [1] (pH 5.8 buffer), 10 µg/mL; in the series on E. coli [1] (pH 7.9 buffer), 40 µg/mL; in the series on S. mutans (pH 4.1 buffer) it was 1.25 µg/mL; against S. mutans (pH 5.8 buffer), 5 µg/mL; with S. mutans (pH 7.9 buffer) it was 10 µg/mL. Besides, the “Difference in MBC between pH 4.1 and pH 7.9” value in the series on E. coli [1] (more effective at pH 4.1) is on record as 16 fold. Also, in the series on S. mutans (more effective in acidic conditions), the “Difference in MBC, acidic vs mildly basic conditions (pH 4.1 vs pH 7.9)” value is recorded as 8 fold. Further, the “Concentration that fully inhibited E. coli growth” value in the series on E. coli [2] (exposure at pH 4.1, growth followed up to 19 hours) came out at 2.5 µg/mL. Also, the “Concentration required to inhibit cell growth” value in the series on E. coli [2] (exposure at pH 7.9) is 40 µg/mL. In the series “pKa”, this molecule registered a pKa of 5.3. The “Average hydrodynamic diameter of particles” value in series [3] (mildly basic conditions) is given as 51±19 nm. Also, the Particle formation result in series [3] (pH 4.1 buffer) is given as “No particles were found”. Further, the Solubility in water result in “Solubility in water” is given as “limited solubility in water”.
